Experimental findings from ChEMBL document CHEMBL1909294, “Translating clinical findings into knowledge in drug safety evaluation--drug induced liver injury prediction system (DILIps)” (PLoS Comput Biol, 2011) are described below.

Data set [1] has as its system Hepatotoxicity.
Data set [2] deals with Hepatotoxicity. This is another data set of the same source.
The subject of data set [3] is Hepatotoxicity. This is another data set of the same source.
In data set [4] the test system is Hepatotoxicity. The source holds these as a separate data set.
Data set [5] has as its system Hepatotoxicity. This is another data set of the same source.
In data set [6] the test system is Hepatotoxicity. The source holds these as a separate data set.
The test system of data set [7] is Hepatotoxicity. This is another data set of the same source.
For data set [8], the system named is Hepatotoxicity. This is another data set of the same source.
Data set [9] concerns Hepatotoxicity. This is another data set of the same source.
Data set [10] deals with Hepatotoxicity. This is another data set of the same source.
The subject of data set [11] is Hepatotoxicity. The source holds these as a separate data set.
In data set [12] the test system is Hepatotoxicity. This is another data set of the same source.
In data set [13] the test system is Hepatotoxicity. The source holds these as a separate data set.
Data set [14] concerns Hepatotoxicity. This is another data set of the same source.
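Wherever HepSE Combined Scores is given: combined hepatic side effect score as listed in the training data of the Drug Induced Liver Injury Prediction System (DILIps).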
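Wherever HepSE bilirubinemia is given: bilirubinemia hepatic side effect score drawn from the DILIps training data, a prediction system for drug-induced liver injury; call rule not given here.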
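Wherever HepSE cholecystitis is given: Cholecystitis-related hepatic side effect score drawn from the DILIps (drug-induced liver injury prediction) training data set; call rule not given here.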
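Wherever HepSE cholelithiasis is given: hepatic side effect score for cholelithiasis, drawn from the DILIps training data for predicting drug-induced liver injury; call rule not given here.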
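Wherever HepSE cirrhosis is given: cirrhosis hepatic side effect score taken from the DILIps (drug-induced liver injury prediction) training set; call rule not given here.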
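Wherever HepSE elevated liver function tests is given: hepatic side effect score for raised liver function tests, as recorded in the DILIps training set used for predicting drug-induced liver injury.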
Wherever HepSE hepatic failure is given: call rule not given here.
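Wherever HepSE hepatic necrosis is given: score of hepatic side effects for hepatic necrosis, drawn from the training data of DILIps, a prediction system for drug-induced liver injury; call rule not given here.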
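Wherever HepSE hepatitis is given: Hepatitis-related hepatic side effect score taken from the training data of DILIps, a prediction system for drug-induced liver injury; call rule not given here.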
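Wherever HepSE hepatomegaly is given: hepatic side effect score for hepatomegaly, taken from the training set of the DILIps drug-induced liver injury prediction system; call rule not given here.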
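Wherever HepSE jaundice is given: Jaundice-related hepatic side-effect score drawn from the training data of the DILIps (drug-induced liver injury prediction system); call rule not given here.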
Wherever HepSE liver disease is given: call rule not given here.
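Wherever HepSE liver fatty is given: hepatic side effect score for fatty liver, taken from the DILIps training set for predicting drug-induced liver injury; call rule not given here.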
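Wherever HepSE liver function tests abnormal is given: hepatic side effect score taken from the DILIps (drug-induced liver injury prediction system) training data, here covering abnormal liver function test findings.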

Regarding `CCOC(=O)c1ccc(C#Cc2ccc3c(c2)C(C)(C)CCS3)nc1` [TAZAROTENE], the “HepSE_elevated liver function tests” value in the data set on Hepatotoxicity [1] is 0. In addition, in the data set on Hepatotoxicity [2], the HepSE_hepatitis was 0. Besides, in the data set with Hepatotoxicity [3], the HepSE_jaundice came to 0. In the data set with Hepatotoxicity [4], the HepSE_liver fatty came out at 0. In the data set on Hepatotoxicity [5], this molecule had a HepSE_liver disease of 0. Besides, the “HepSE_Combined Scores” value with Hepatotoxicity [6] is 0. For the same molecule, the “HepSE_liver function tests abnormal” value in the data set with Hepatotoxicity [7] is 0. In the data set with Hepatotoxicity [8], this molecule yielded a HepSE_cholelithiasis of 0. In the data set on Hepatotoxicity [9], this molecule had a HepSE_cholecystitis of 0. Also, the HepSE_bilirubinemia in the data set with Hepatotoxicity [10] worked out at 0. This molecule also gave a HepSE_hepatic failure with Hepatotoxicity [11] of 0. The same molecule gave a HepSE_cirrhosis with Hepatotoxicity [12] of 0. Also, the HepSE_hepatomegaly in the data set with Hepatotoxicity [13] is given as 0. In the data set with Hepatotoxicity [14], this molecule displayed a HepSE_hepatic necrosis of 0.

`C[C@]12CC[C@@H]3c4ccc(O)cc4CC[C@H]3[C@@H]1CC[C@@H]2O` [ESTRADIOL]: the “HepSE_elevated liver function tests” value with Hepatotoxicity [1] worked out at 1. The molecule also had a HepSE_hepatitis in the data set with Hepatotoxicity [2] of 1. In the data set on Hepatotoxicity [3], this molecule had a HepSE_jaundice of 1. In the data set on Hepatotoxicity [4], the HepSE_liver fatty is given as 0. Also, the HepSE_liver disease in the data set on Hepatotoxicity [5] amounted to 0. In addition, the “HepSE_Combined Scores” value in the data set with Hepatotoxicity [6] is 3. Besides, the “HepSE_liver function tests abnormal” value in the data set with Hepatotoxicity [7] came to 0. The HepSE_cholelithiasis in the data set with Hepatotoxicity [8] came to 0. Moreover, the HepSE_cholecystitis in the data set with Hepatotoxicity [9] is given as 0. The molecule also came in with a HepSE_bilirubinemia in the data set with Hepatotoxicity [10] of 0. The molecule also came in with a HepSE_hepatic failure in the data set with Hepatotoxicity [11] of 0. The same molecule returned a HepSE_cirrhosis in the data set with Hepatotoxicity [12] of 0. Further, the HepSE_hepatomegaly in the data set on Hepatotoxicity [13] is 0. In the data set with Hepatotoxicity [14], this molecule registered a HepSE_hepatic necrosis of 0.

For `CC(=O)Oc1c(C)cc(OCC(O)CNC(C)C)c(C)c1C` (stereo not given) [METIPRANOLOL], the “HepSE_elevated liver function tests” value in the data set on Hepatotoxicity [1] was 0. This molecule yielded a HepSE_hepatitis in the data set with Hepatotoxicity [2] of 0. In the data set with Hepatotoxicity [3], this molecule came in with a HepSE_jaundice of 0. The molecule further returned a HepSE_liver fatty with Hepatotoxicity [4] of 0. Moreover, in the data set with Hepatotoxicity [5], the HepSE_liver disease is on record as 0. Besides, the “HepSE_Combined Scores” value with Hepatotoxicity [6] turned out to be 0. For the same molecule, the “HepSE_liver function tests abnormal” value with Hepatotoxicity [7] turned out to be 0. This molecule displayed a HepSE_cholelithiasis in the data set with Hepatotoxicity [8] of 0. Further, in the data set with Hepatotoxicity [9], the HepSE_cholecystitis is 0. In the data set on Hepatotoxicity [10], the HepSE_bilirubinemia came to 0. In addition, the HepSE_hepatic failure with Hepatotoxicity [11] was 0. For the same molecule, in the data set on Hepatotoxicity [12], the HepSE_cirrhosis is listed as 0. For the same molecule, the HepSE_hepatomegaly in the data set on Hepatotoxicity [13] is on record as 0. The molecule also had a HepSE_hepatic necrosis in the data set on Hepatotoxicity [14] of 0.

Consider `Nc1nc(/C(=C/CC(=O)O)C(=O)N[C@@H]2C(=O)N3C(C(=O)O)=CCS[C@H]23)cs1` [CEFTIBUTEN], for which the “HepSE_elevated liver function tests” value in the data set with Hepatotoxicity [1] amounted to 0. For the same molecule, the HepSE_hepatitis with Hepatotoxicity [2] is on record as 0. Further, the HepSE_jaundice in the data set with Hepatotoxicity [3] is on record as 1. This molecule also came in with a HepSE_liver fatty with Hepatotoxicity [4] of 0. In the data set with Hepatotoxicity [5], the HepSE_liver disease is on record as 0. Also, the “HepSE_Combined Scores” value in the data set on Hepatotoxicity [6] was determined as 1. In addition, the “HepSE_liver function tests abnormal” value in the data set with Hepatotoxicity [7] was determined as 0. The molecule also returned a HepSE_cholelithiasis in the data set on Hepatotoxicity [8] of 0. Also, in the data set on Hepatotoxicity [9], the HepSE_cholecystitis was determined as 0. In the data set with Hepatotoxicity [10], this molecule showed a HepSE_bilirubinemia of 0. In addition, the HepSE_hepatic failure with Hepatotoxicity [11] is on record as 0. Moreover, the HepSE_cirrhosis with Hepatotoxicity [12] is recorded as 0. Further, the HepSE_hepatomegaly in the data set on Hepatotoxicity [13] was determined as 0. The HepSE_hepatic necrosis in the data set on Hepatotoxicity [14] amounted to 0.

Turning to `CC(=O)O[C@]1(C(C)=O)CC[C@H]2[C@@H]3C=C(C)C4=CC(=O)CC[C@]4(C)[C@H]3CC[C@@]21C` [MEGESTROL ACETATE], the “HepSE_elevated liver function tests” value in the data set on Hepatotoxicity [1] was 0. In the data set on Hepatotoxicity [2], this molecule yielded a HepSE_hepatitis of 0. Also, in the data set with Hepatotoxicity [3], the HepSE_jaundice amounted to 0. Moreover, in the data set with Hepatotoxicity [4], the HepSE_liver fatty amounted to 0. This molecule registered a HepSE_liver disease in the data set on Hepatotoxicity [5] of 0. For the same molecule, in the data set on Hepatotoxicity [6], the “HepSE_Combined Scores” value amounted to 1. Besides, the “HepSE_liver function tests abnormal” value in the data set on Hepatotoxicity [7] stood at 0. This molecule displayed a HepSE_cholelithiasis in the data set with Hepatotoxicity [8] of 0. The HepSE_cholecystitis in the data set with Hepatotoxicity [9] worked out at 0. Moreover, the HepSE_bilirubinemia with Hepatotoxicity [10] is given as 0. The HepSE_hepatic failure with Hepatotoxicity [11] was 0. The molecule further gave a HepSE_cirrhosis in the data set on Hepatotoxicity [12] of 0. In the data set on Hepatotoxicity [13], the HepSE_hepatomegaly was 1. The HepSE_hepatic necrosis with Hepatotoxicity [14] is listed as 0.
